The values below are quoted from earlier work in patent US20250367153A1, “COMPOSITION AND APPLICATION THEREOF” (priority 2024, published 2025).

What is called LD50 is the dose at which mortality reaches 50%.

In series [1] the test system is rat.
For series [2], the system named is rat, mouse, and guinea pig.
For series [3], the system named is rats and dogs.

As to `NCC(=O)O` [glycine], the “NOAEL (no-observed-adverse-effect level)” value in series [1] is listed as “at least 2000 mg/kg/day”.

As for `O=CC=Cc1ccccc1` [cinnamaldehyde], the LD50 in series [2] is 3400 mg/kg.

Regarding `OCC=Cc1ccccc1` [cinnamyl alcohol], the median lethal dose (LD50) in series [2] is on record as 2675 mg/kg.

For the compound phosphatidylserine, the “acute oral LD50” value in series [3] (acute oral) is given as “greater than 5 g/kg bw”. Further, the NOAEL in series [3] (rats and dogs) was 1,000 mg/kg bw/day.
